Among the data in PubChem BioAssay (NCI) are GI50 and TGI values, retold here.

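1) Cells in 96-well plates. 2) Compound, 48 h, 5 concentrations. 3) Linear interpolation between surrounding doses. 4) Unreached endpoint = highest concentration. GI50 = concentration required for 50% inhibition of growth. TGI: concentration producing complete growth inhibition.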

Some test systems named below: A549 NSCLC; ACHN renal; HCT-15 colon; HS 578T breast; IGROV1 ovarian; MDA-MB-435; OVCAR-5 ovarian; RXF 393 renal; SF-539 CNS; UACC-257 melanoma.
Common to all, as to assay: DTP human tumour cell line panel, 48 h

As to `C=CC(=O)N1CC2(CCN(c3nc(OC4CCN(CCCOC)CC4)nc4c(OCC(F)(F)F)c(-c5c(C)ccc6[nH]ncc56)c(C5CC5)cc34)CC2)C1`, the GI50 in the test on A549 NSCLC was 3.45 µM; in the test on ACHN renal it was 2.11 µM; with HCT-15 colon, 1.66 µM; in the test on HS 578T breast it was 2.91 µM; in the test with IGROV1 ovarian, 6.88 µM; in the test with MDA-MB-435, 1.85 µM. For the same compound, the GI50 is 5.31 µM in the test on OVCAR-5 ovarian, 1.8 µM with RXF 393 renal, 1.65 µM in the test with SF-539 CNS and 3.03 µM in the test on UACC-257 melanoma. Besides, the TGI in the test with A549 NSCLC came out at 17.6 µM; in the test with ACHN renal it was 4.44 µM; in the test with HCT-15 colon it was 3.21 µM; in the test with HS 578T breast, 13.3 µM; in the test on IGROV1 ovarian, 21.3 µM; in the test with MDA-MB-435, 4 µM. Besides, the TGI was determined as 18 µM with OVCAR-5 ovarian, 3.73 µM in the test on RXF 393 renal, 3.07 µM in the test on SF-539 CNS and 12.4 µM with UACC-257 melanoma.

For the compound `COc1ccc(/C=C/c2nccc3ccccc23)cc1OC`, the TGI in the test on A549 NSCLC, in the test on ACHN renal, in the test on HCT-15 colon, in the test with HS 578T breast, in the test with IGROV1 ovarian and with MDA-MB-435 was above 10 µM in each case. Also, the TGI in the test on OVCAR-5 ovarian, in the test on RXF 393 renal, in the test with SF-539 CNS and with UACC-257 melanoma was above 10 µM throughout.

As to `CC[C@@H]1CN(C)[C@H]2Cc3c([nH]c4ccccc34)C(=O)C[C@H]1C2C(=O)OC` (some centres undefined), the TGI in the test on A549 NSCLC, with ACHN renal, with HCT-15 colon, in the test with HS 578T breast, in the test with IGROV1 ovarian and in the test with MDA-MB-435 was above 100 µM each time. Further, the total growth inhibition concentration (TGI) in the test on OVCAR-5 ovarian, in the test on RXF 393 renal, in the test on SF-539 CNS and with UACC-257 melanoma was above 100 µM throughout.

With `O=C(N/N=C/c1ccccc1O)c1ccccc1Nc1ccnc(C(F)(F)F)c1`, the GI50 in the test on A549 NSCLC is 0.505 µM; in the test with ACHN renal, 0.342 µM; with HCT-15 colon, 0.177 µM; in the test on HS 578T breast it was 12.9 µM; in the test on IGROV1 ovarian, 0.0154 µM; in the test on MDA-MB-435 it was 1.37 µM. In addition, the GI50 with OVCAR-5 ovarian is 4.34 µM; with RXF 393 renal, 1.05 µM; in the test on SF-539 CNS, 0.545 µM; in the test on UACC-257 melanoma, 0.396 µM. Also, the TGI in the test on A549 NSCLC is above 30.9 µM; in the test on ACHN renal it was above 63.5 µM; in the test on HCT-15 colon, above 100 µM; with HS 578T breast, above 100 µM; in the test on IGROV1 ovarian it was 0.0883 µM; in the test with MDA-MB-435, above 100 µM. Besides, the TGI in the test with OVCAR-5 ovarian was above 92.3 µM; with RXF 393 renal, above 40.3 µM; with SF-539 CNS it was 11.3 µM.

On to `CCCn1cnc2c(SCc3ccccc3Cl)nc(N)nc21`, for which the GI50 is 20.8 µM with A549 NSCLC; 13.6 µM with ACHN renal; 1.36 µM with HCT-15 colon; 40.4 µM with HS 578T breast; 13.3 µM with IGROV1 ovarian; 13.6 µM with MDA-MB-435. In addition, the GI50 with OVCAR-5 ovarian is 25.7 µM; with RXF 393 renal, 6.16 µM; in the test on SF-539 CNS, 9.81 µM; in the test on UACC-257 melanoma it was 27.8 µM. The TGI with A549 NSCLC is above 100 µM; with ACHN renal, 67.4 µM; in the test on HCT-15 colon, 20.1 µM; with HS 578T breast, above 100 µM; in the test with IGROV1 ovarian, above 100 µM; with MDA-MB-435, 37 µM. Further, the TGI with OVCAR-5 ovarian is 91.9 µM; with RXF 393 renal it was 24.8 µM; with SF-539 CNS, 44.8 µM; in the test with UACC-257 melanoma it was 93.8 µM.

Turning to `OCc1c[nH]c2ccccc12`, the GI50 with A549 NSCLC is 20.8 µM; in the test on ACHN renal it was 24.4 µM; with HCT-15 colon it was 20.3 µM; with HS 578T breast, 33.9 µM; with IGROV1 ovarian it was 14.1 µM; in the test with MDA-MB-435 it was 19.8 µM. For the same compound, the GI50 in the test on OVCAR-5 ovarian was 20.8 µM; in the test on RXF 393 renal it was 18.2 µM; in the test with SF-539 CNS, 19.3 µM; in the test with UACC-257 melanoma it was 22.9 µM. In addition, the TGI in the test on A549 NSCLC was 57.9 µM; in the test with ACHN renal, 86.4 µM; with HCT-15 colon it was 55.3 µM; in the test with HS 578T breast, above 100 µM; in the test with IGROV1 ovarian it was 42.2 µM; in the test with MDA-MB-435 it was 48.2 µM. The total growth inhibition concentration (TGI) with OVCAR-5 ovarian was found to be 58.6 µM; with RXF 393 renal, 43.8 µM; in the test with SF-539 CNS, 46.1 µM; in the test with UACC-257 melanoma, 74 µM.

As to `Oc1ccc(NCc2nc3ccccc3[nH]2)cc1`, the GI50 with A549 NSCLC was 51.6 µM; in the test with ACHN renal, above 100 µM; with HCT-15 colon it was above 100 µM; in the test on HS 578T breast it was 15 µM; with IGROV1 ovarian it was 76.4 µM; with MDA-MB-435 it was above 100 µM. Also, the GI50 in the test with OVCAR-5 ovarian was above 100 µM; with RXF 393 renal it was 30.3 µM; with SF-539 CNS, 51.7 µM; in the test with UACC-257 melanoma it was 88 µM. Also, the TGI in the test with A549 NSCLC is above 100 µM; with ACHN renal, above 100 µM; with HCT-15 colon it was above 100 µM; in the test on HS 578T breast it was 79.2 µM; in the test with IGROV1 ovarian, above 100 µM; in the test with MDA-MB-435 it was above 100 µM. Also, the TGI in the test with OVCAR-5 ovarian, in the test with RXF 393 renal, with SF-539 CNS and in the test on UACC-257 melanoma was above 100 µM in each case.

Regarding `Nc1nc(Cl)c2ncn(Cc3ccc(C45CC6CC(CC(C6)C4)C5)c(O)c3)c2n1`, the GI50 in the test with A549 NSCLC was 1.29 µM; in the test on ACHN renal it was 3.35 µM; in the test on HCT-15 colon it was 8.78 µM; in the test on HS 578T breast it was 2.29 µM; in the test on IGROV1 ovarian it was 4.72 µM; with MDA-MB-435, 5.14 µM. Moreover, the GI50 in the test on OVCAR-5 ovarian is 6.13 µM; in the test on RXF 393 renal it was 1.87 µM; with SF-539 CNS it was 11.8 µM; in the test with UACC-257 melanoma, 0.578 µM. Besides, the TGI in the test with A549 NSCLC was determined as 3.17 µM; in the test on ACHN renal, 13.9 µM; in the test on HCT-15 colon it was 25.5 µM; with HS 578T breast, 12.1 µM; in the test on IGROV1 ovarian it was 21.9 µM; with MDA-MB-435 it was 23.2 µM. The TGI in the test on OVCAR-5 ovarian worked out at 20.6 µM; in the test with RXF 393 renal, 6.56 µM; with SF-539 CNS, 26.7 µM; in the test with UACC-257 melanoma, 4.86 µM.

What is called GI50 is the concentration that inhibits growth by half. As a reminder, the TGI is the concentration giving total growth inhibition. A high value points to lower sensitivity of the cells.
